From ChEMBL document CHEMBL1134051, “Synthesis and biological activity of the 1alpha,25-dihydroxyvitamin D3 diastereomer with unnatural configuration at the rings C/D side-chain moiety” (2001)

Assays:
Mus musculus = test: Dose required to induce hypercalcemia after administration in mice; type: functional
HL-60 = test: Dosage required for differentiation of HL-60 cells to monocytes; type: functional, Homo sapiens
[1] = Dose required to inhibit proliferation of human peripheral blood mononuclear cells (PMBC); type: functional

| SMILES | Dose (Mus musculus) [µg/kg] | Dose (HL-60) [nM] | Dose [1] [nM] |
| --- | --- | --- | --- |
| C=C1/C(=C\C=C2/CCC[C@]3(C)[C@@H]([C@H](C)CCCC(C)(C)O)CC[C@@H]23)C[C@@H](O)C[C@@H]1O [CALCITRIOL] | 0.1 |  |  |
| C=C1/C(=C\C=C2/CCC[C@]3(C)[C@@H]2CC[C@H]3[C@@H](C)CCCC(C)(C)O)C[C@@H](O)C[C@@H]1O |  | 100 | 100 |
